Laboratory results as given in patent US7132420B2, “Aspartic protease inhibitors” (The United States of America as represented by the …, priority 1999, dated 2006).
Where two headings read alike, the source gives them in different places.

How the values were obtained:
[1] = target: 32I mutant HIV-1 protease (Human immunodeficiency virus type 1 group M subtype B, UniProt P04585, V520I); experiment: HIV protease assay, 32I mutant (Ki); type: biochemical; settings: Table 1; read-out: 321 Ki
Text: (§1) This example illustrates the HIV-1 protease inhibition activity (Ki), HIV-1 antiviral data (EC50), and the toxicity against normal cells (IC50), for particular compounds of formula (I). The HIV protease assay was done according to the protocol described in Kageyama et al, Antimicrob. Agents Chemother., 37, 272 (1993). The HIV antiviral assay was done according to the protocol described in Weislow et al., J. National Cancer Inst. 81, 577 (1989).

[2] = target: 82F/84V mutant HIV-1 protease (Human immunodeficiency virus type 1 group M subtype B, UniProt P04585, I572V/V570F); type: biochemical
Text: as §1

[3] = target: 84V mutant HIV-1 protease (Human immunodeficiency virus type 1 group M subtype B, UniProt P04585, I572V); experiment: HIV protease assay, 84V mutant (Ki); type: biochemical
Text: as §1

HIV-1 = experiment: HIV antiviral assay (EC50); type: cell-based
Text: The HIV protease assay was done according to the protocol described in Kageyama et al, Antimicrob. Agents Chemother., 37, 272 (1993). The HIV antiviral assay was done according to the protocol described in Weislow et al., J. National Cancer Inst. 81, 577 (1989).

plasmepsin II = plasmepsin II (Plasmodium falciparum, UniProt P46925); experiment: biochemical; type: biochemical; settings: for Ki: Table 2, read-out: Pls II Ki
Chain of plasmepsin II (P46925 125-453): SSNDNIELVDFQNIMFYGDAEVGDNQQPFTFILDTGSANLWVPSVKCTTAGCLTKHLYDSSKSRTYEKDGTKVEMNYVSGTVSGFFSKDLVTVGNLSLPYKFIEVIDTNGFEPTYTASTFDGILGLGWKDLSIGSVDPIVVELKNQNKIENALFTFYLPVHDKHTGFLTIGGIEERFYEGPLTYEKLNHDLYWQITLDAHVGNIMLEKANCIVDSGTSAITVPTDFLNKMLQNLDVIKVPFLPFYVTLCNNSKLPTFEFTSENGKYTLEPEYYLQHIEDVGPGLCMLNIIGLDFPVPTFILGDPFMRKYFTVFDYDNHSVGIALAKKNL
Text: (§2) The HIV protease assay was done according to the protocol described in Example 35. The plasmepsin II assay was done according to the protocol used in Silva et al., Proc. Nat. Acad. Sci. USA, 93, pp. 10034–10039, September 1996 (Biochemstry). The cathepsin D assay was done according to the protocol described in Gulnik et al., FEBS Letters, 413, 379–384 (1997). The compounds illustrated in Table 2 are of the general formula (II), as described in Example 35.

HIV-1 protease = HIV-1 protease (Human immunodeficiency virus type 1 group M subtype B, UniProt P04585); experiment: HIV protease assay (Ki); type: biochemical
Text: as §1, §2

[4] = Rat P.O. pharmacokinetics and oral bioavailability; type: in vivo, rats; settings: for Rat P.O. % F (%): AUC p.o. relative to AUC iv; for Cmax / Rat P.O. tmax: P.O. about 37 mg/kg, PEG 300 vehicle; for Cmax when administered orally, in words: oral
Procedure: (§3) This example illustrates the oral bioavailability of various compounds of the present invention. […] Drug concentrations were measured by centrifuging plasma samples, extracting the supernatants with tert-butyl methyl ether, and analyzing the extracts by HPLC. Oral bioavailability (% F) was calculated on the basis of the ratio of the amount of drug absorbed systemically from oral administration (AUC p.o.) relative to the amount of systemic drug obtained from intravenous administration (AUC iv).

normal cells = experiment: toxicity against normal cells (IC50); type: cell-based
Text: as §1

Rat IV pharmacokinetics = type: in vivo, rats; settings: IV about 5 mg/kg
Procedure: as §3

cathepsin D = cathepsin D (Homo sapiens, UniProt P07339); experiment: cathepsin D assay (Ki); type: biochemical; settings: for Ki: Table 2, read-out: Cath D Ki
Chain of cathepsin D (P07339 65-412): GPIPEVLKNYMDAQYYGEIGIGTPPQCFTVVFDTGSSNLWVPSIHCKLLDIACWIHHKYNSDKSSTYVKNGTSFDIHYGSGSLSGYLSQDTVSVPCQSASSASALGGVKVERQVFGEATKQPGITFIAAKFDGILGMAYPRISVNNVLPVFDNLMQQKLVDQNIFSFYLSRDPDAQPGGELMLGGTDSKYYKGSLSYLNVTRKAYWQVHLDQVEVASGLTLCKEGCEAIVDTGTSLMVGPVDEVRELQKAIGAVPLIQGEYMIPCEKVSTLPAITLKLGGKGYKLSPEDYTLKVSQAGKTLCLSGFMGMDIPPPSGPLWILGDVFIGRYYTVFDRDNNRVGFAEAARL
Text: as §2

[5] = IV-PO crossover oral bioavailability studies; type: in vivo; settings: two Sprague-Dawley rats; IV 7 and 3 mg/kg (DMSO), oral 22 and 50 mg/kg (PEG300)
Procedure: Compound (19) was tested in IV-PO crossover studies in two Sprague-Dawley rats. For the IV portion of the studies, compound (19) was given at doses of 7 and 3 mg/kg, as a short infusion (30–60 seconds) via a jugular vein catheter using a vehicle of DMSO and a dose volume of 1 ml/kg. Heparinized blood samples were collected at close intervals through 3 hours, the plasma was separated, and plasma concentrations of compound (19) were determined by HPLC. One to two weeks later, the same rats were given doses of 22 and 50 mg/kg by gastric intubation. The vehicle was PEG300 and the dose volume was 10 ml/kg. Blood samples were collected at regular intervals through 24 hours, and analyzed as above. The oral bioavailability in both of these studies was 100%. Based on the excellent oral bioavailability of compound (19), it is expected that compound (19) will be an effective inhibitor of systemic aspartic protease when administered orally. Other compounds of the present invention also are expected to have-good oral bioavailability.

[6] = comparison of Table 2 Ki values

Row | Structure (SMILES) | Ki ([2]; Table 1) | EC50 (HIV-1; Table 1) | EC50 (HIV-1; Table 2) | Ki (plasmepsin II) | Ki (HIV-1 protease; Table 1, read-out: HIV-1 Ki) | Ki (HIV-1 protease; Table 2, read-out: HIV-1 Ki) | IC50 (normal cells; Table 2) | IC50 (normal cells; Table 1) | further results
1 | Cc1cccc(C)c1OCC(=O)N[C@@H](Cc1ccccc1)[C@@H](O)C[C@H](CC(C)C)NC(=O)[C@H](C(C)C)N1CCCNC1=O [(16)] | 0.137 nM | 23 nM | 23 nM | 357 nM | 0.007 nM | 0.007 nM | > 100 µM |  | Ki [1]: 0.031 nM; Ki ([3]; Table 1): 0.091 nM; EC50 (HIV-1; Table 3): 23 nM; potency relative to compound (24) against plasmepsin II (plasmepsin II; [6]): about ten-fold more potent than compound (24); inhibitory activity against HIV-1 protease, in words (HIV-1 protease): excellent potency; Ki (HIV-1 protease; Table 3, read-out: HIV-1 Ki): 0.008 nM; potency relative to compound (24) against HIV-1 protease (HIV-1 protease; [6]): about ten-fold more potent than compound (24); Rat P.O. % F (%) [4]: 1%; Cmax [4]: 269 nM; Rat P.O. tmax [4]: 10 to 15 min; Rat IV CL (Rat IV pharmacokinetics): 9.8 mL/min/kg; Rat IV t1/2 (Rat IV pharmacokinetics): 27 min; Ki (cathepsin D): 3300 nM
2 | CC(C)C[C@@H](C[C@H](O)[C@H](Cc1ccccc1)NC(=O)c1ccccc1NC(=O)OCc1ccccn1)NC(=O)c1ccccc1NC(=O)OCc1ccccn1 [(21)] |  | 127 nM |  |  | 0.14 nM |  |  | > 20 µM | Ki ([3]; Table 1, in nM): 2.7 nM
3 | CC(C)[C@H](NC(=O)OCc1ccccn1)C(=O)N[C@@H](Cc1ccccc1)C[C@H](O)[C@H](Cc1ccccc1)NC(=O)[C@@H](NC(=O)OCc1ccccn1)C(C)C [(22), reference compound] | 0.271 nM |  |  |  | 0.015 nM |  |  |  | Ki ([3]; Table 1): 0.21 nM
4 | Cc1cccc(C)c1OCC(=O)N[C@@H](Cc1ccccc1)[C@@H](O)C[C@H](CC(C)C)NC(=O)O[C@H]1CCOC1 [(26)] |  | 700 nM | 700 nM | 55 nM | 0.06 nM | 0.06 nM | > 100 µM |  | Ki ([2]; Table 1, in nM): 2.7 nM; Ki (cathepsin D): 3.5 nM
5 | Cc1cccc(C)c1OCC(=O)N[C@@H](Cc1ccccc1)[C@@H](O)C[C@H](CC(C)C)NC(=O)NC(C)(C)C [(28), (2S,3S,5S)-5-[N-[[N′-(tert-butyl)amino]carbonyl]amino]-2-[N-[2-(2,6-dimethylphenoxy)acetyl]amino]-3-hydroxy-7-methyl-1-phenyloctane] |  | 2000 nM | 2000 nM | 107 nM | 0.1 nM | 0.1 nM | > 100 µM |  | inhibitory activity against plasmepsin II, in words (plasmepsin II): generally potent; inhibitory activity against HIV-1 protease, in words (HIV-1 protease): generally potent; inhibitory activity against cathepsin D, in words (cathepsin D): generally potent
6 | Cc1cccc(C)c1OCC(=O)N[C@@H](Cc1ccccc1)[C@@H](O)C[C@H](CC(C)C)NC(=O)[C@@H](NC(=O)OCc1ccccn1)C(C)C [(30), (2S,3S,5S)-2-[N-[2-(2,6-dimethylphenoxy)acetyl]amino]-5-[N-[N′-(pyridine-2-methoxycarbonyl)valinyl]amino]-3-hydroxy-7-methyl-1-phenyloctane] | 0.41 nM | 83 nM | 83 nM | 2350 nM | 0.017 nM | 0.017 nM | > 100 µM | > 100 µM | Ki (cathepsin D): 3300 nM
7 | Cc1cccc(C)c1OCC(=O)N[C@@H](Cc1ccccc1)[C@@H](O)C[C@H](CC(C)C)NC(=O)c1ccc(N)cc1 [(31), (2S,3S,5S)-5-[N-(4-aminobenzoyl)amino]-2-[N-[2-(2,6-dimethylphenoxy)acetyl]amino]-3-hydroxy-7-methyl-1-phenyloctane] |  |  |  | 30 nM |  |  | > 100 µM | > 100 µM | EC50 (HIV-1; Human immunodeficiency virus 1, Table 1): 2000 nM; inhibitory activity against plasmepsin II, in words (plasmepsin II): generally potent; Ki (HIV-1 protease): 1.2 nM; inhibitory activity against HIV-1 protease, in words (HIV-1 protease): generally potent; inhibitory activity against cathepsin D, in words (cathepsin D): generally potent
8 | Cc1cccc(C)c1OCC(=O)N[C@@H](Cc1ccccc1)[C@@H](O)C[C@H](CC(C)C)NC(=O)c1cccc(N)c1 [(32)] |  | 2000 nM | 2000 nM | 18 nM | 0.331 nM | 0.33 nM | > 100 µM | > 100 µM | inhibitory activity against plasmepsin II, in words (plasmepsin II): generally potent; inhibitory activity against HIV-1 protease, in words (HIV-1 protease): generally potent; inhibitory activity against cathepsin D, in words (cathepsin D): generally potent; Ki (cathepsin D): 7.4 nM
9 | CC(C)C[C@@H](C[C@H](O)[C@H](Cc1ccccc1)NC(=O)O[C@H]1CCOC1)NC(=O)[C@H](C(C)C)N1CCCNC1=O [(35), (2S,3S,5S)-2-[N-(3S-terahydrofuranyloxycarbonyl]amino]-5-[N-[[3-methyl-2S-(2-oxo-tetrahydropyrimidin-1-yl)]butyryl]amino]-3-hydroxy-7-methyl-1-phenyloctane] |  | 700 nM |  |  | 0.094 ± 0.024 nM |  |  | > 100 µM | Ki ([2]; Table 1, in nM): 3.2 nM
10 | Cc1ccccc1C(=O)N[C@@H](Cc1ccccc1)[C@@H](O)C[C@H](CC(C)C)NC(=O)OC(C)(C)C [(38)] |  |  |  |  |  |  |  |  | Ki ([3]; Table 1, in nM): 12 nM; Ki (HIV-1 protease; Table 1, in nM, read-out: HIV-1 Ki): 2.1 nM
11 | Cc1cccc(C)c1OCC(=O)N[C@@H](CC(C)C)C[C@H](O)[C@H](Cc1ccccc1)NC(=O)[C@H](C(C)C)N1CCCNC1=O [(43)] |  | 540 nM |  |  | 0.176 nM |  |  | > 100 µM | EC50 (HIV-1; Table 3): 540 nM; Ki (HIV-1 protease; Table 3, read-out: HIV-1 Ki): 0.176 nM; Cmax [4]: 2100 nM; Rat P.O. tmax [4]: 120 min; Cmax when administered orally, in words [4]: micromolar; Rat IV CL (Rat IV pharmacokinetics): 36.6 mL/min/kg; Rat IV t1/2 (Rat IV pharmacokinetics): 28 min
12 | Cc1cccc(C)c1OCC(=O)N[C@@H](Cc1ccccc1)[C@@H](O)C[C@H](CC(C)C)NC(=O)[C@@H](NC(=O)N1CCOCC1)C(C)C [(45), (2S,3S,5S)-2-[N-[2-(2,6-dimethylphenoxy)acetyl]amino]-5-[N-[[N′-(morpholin-4)carbonyl]valinyl]amino]-3-hydroxy-7-methyl-1-phenyloctane] | 0.437 nM | 170 nM |  |  | 0.05 nM |  |  | > 100 µM | EC50 (HIV-1; Table 3): 170 nM; Ki (HIV-1 protease; Table 3, read-out: HIV-1 Ki): 0.05 nM; Rat P.O. % F (%) [4]: 29%; Cmax [4]: 573 nM; Rat P.O. tmax [4]: 16 min; Rat IV CL (Rat IV pharmacokinetics): 67.5 mL/min/kg; Rat IV t1/2 (Rat IV pharmacokinetics): 20 min
13 | CCOC(=O)N[C@H](C(=O)N[C@@H](CC(C)C)C[C@H](O)[C@H](Cc1ccccc1)NC(=O)COc1c(C)cccc1C)C(C)C [(46)] | 0.671 nM | 160 nM |  |  | 0.054 nM |  |  | > 100 µM | 
14 | CC(C)C[C@@H](C[C@H](O)[C@H](Cc1ccccc1)NC(=O)OCc1cncs1)NC(=O)[C@H](C(C)C)N1CCCNC1=O [Compound (19), (2S,3S,5S)-5-[N-[[3-methyl-2S-(2-oxo-tetrahydropyrimidin-1-yl)]butyryl]amino]-2-[N-[(thiazol-5-yl-methoxy)carbonyl]amino]-3-hydroxy-7-methyl-1-phenyloctane] |  | 500 nM |  |  | 0.07 ± 0.01 nM |  |  | > 100 µM | EC50 (HIV-1; Table 3): 500 nM; Ki (HIV-1 protease; Table 3, read-out: HIV-1 Ki): 0.07 nM; oral bioavailability [5]: 100%; Cmax [4]: 24800 nM; Rat P.O. tmax [4]: 120 to 360 min; Cmax when administered orally, in words [4]: micromolar; Rat IV CL (Rat IV pharmacokinetics): 25 mL/min/kg; Rat IV t1/2 (Rat IV pharmacokinetics): 18 min
